Reference: patent publication US9169217B2, “Arylalkyl esters of 4-amino-6-(substituted phenyl)-picolinates and 6-amino-2-(substituted phenyl)-pyrimidinecarboxylates and their use as selective herbicides for crops” (Dow AgroSciences LLC, priority 2011, dated 2015)

Legend:
[1] = tested on: Echinochloa colonum (L.) LINK (junglerice); assay: Postemergence foliar-applied herbicidal activity in direct seeded rice (Example 16); assay type: in vivo; settings: Echinochloa colona, post-emergence, 504 h, rice cropping systems, 17.5 g ae/ha, 21 DAA, may represent multiple trials, read-out: Visual Injury (%) ECHCO
Outline: (§1)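 Greenhouse plants at 2nd–3rd true leaf stage (10–17 d, ~29/26 °C, 14-h photoperiod) sprayed postemergence with ester forms in acetone–DMSO plus 1.25% crop oil concentrate at 187 L/ha. Visual injury scored 0–100% versus untreated plants after 3 weeks; GR50/GR80 derived by probit analysis.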

[2] = tested on: Scirpus juncoides ROXB. (Japanese bulrush); assay: as above; assay type: in vivo; settings: Schoenoplectiella juncoides, post-emergence, 504 h; rice cropping systems, foliar-applied, 17.5 g ae/ha, 21 DAA; may represent multiple trials; read-out: Visual Injury (%) SCPJU
Outline: as §1

[3] = tested on: Sesbania exaltata (RAF.) CORY/RYDB. (hemp sesbania); assay: as above; assay type: in vivo; settings: rice cropping systems, 17.5 g ae/ha, 21 DAA, may represent multiple trials
Outline: as §1

[4] = tested on: Aeschynomene sensitive SW./L. (sensitive jointvetch); assay: as above; assay type: in vivo; settings: rice cropping systems, 17.5 g ae/ha, 21 DAA, may represent multiple trials
Outline: as §1

[5] = tested on: Echinochloa crus-galli (L.) P.BEAUV. (barnyardgrass); assay: as above; assay type: in vivo; settings: rice cropping systems, 17.5 g ae/ha, 21 DAA, may represent multiple trials
Outline: as §1

[6] = tested on: Cyperus esculentus L. (yellow nutsedge); assay: as above; assay type: in vivo; settings: rice cropping systems, 17.5 g ae/ha, 21 DAA, may represent multiple trials
Outline: as §1

[7] = tested on: Cyperus iria L. (rice flatsedge); assay: as above; assay type: in vivo; settings: rice cropping systems, 17.5 g ae/ha, 21 DAA, may represent multiple trials
Outline: as §1

[8] = tested on: Scirpus juncoides ROXB. (Japanese bulrush); assay: In-water applied herbicidal activity in transplanted paddy rice (Example 17); assay type: in vivo; settings: Schoenoplectiella juncoides, 504 h; rice cropping systems, in-water applied (paddy), 35 g ae/ha, 21 DAA; may represent multiple trials; read-out: Visual Injury (%) SCPJU
Outline: (§2)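 Ester forms of test compounds, in acetone diluted with aqueous Agri-dex (final 1.25% v/v crop oil concentrate), were injected into the flood water of paddy pots holding weeds or rice at the 2nd–3rd leaf stage in mud (pH ~7.3–7.8). Visual injury versus untreated plants was scored 0–100% after 3 weeks in greenhouse (~29/26 °C). GR50/GR80 were derived by probit analysis.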

[9] = tested on: Echinochloa crus-galli (L.) P.BEAUV. (barnyardgrass); assay: as above; assay type: in vivo; settings: Echinochloa crus-galli, 504 h; rice cropping systems, in-water applied (paddy), 35 g ae/ha, 21 DAA; may represent multiple trials; read-out: Visual Injury (%) ECHCG
Outline: as §2

SMILES | pest or weed control at 17.5 g/ha [1] [%] | pest or weed control at 17.5 g/ha [2] [%] | Visual Injury (%) SEBEX [3] [%] | Visual Injury (%) AESSE [4] [%] | Visual Injury (%) ECHCG [5] [%] | Visual Injury (%) CYPES [6] [%] | Visual Injury (%) CYPIR [7] [%] | pest or weed control at 35 g/ha [8] [%] | pest or weed control at 35 g/ha [9] [%] | melting point [°C]
CCOc1c(Cl)ccc(-c2nc(C(=O)OCc3ccccc3)c(Cl)c(N)c2F)c1F [Compound 41, benzyl 4-amino-3-chloro-6-(4-chloro-3-ethoxy-2-fluorophenyl)-5-fluoropicolinate] | 95 | 90 | 99 | 100 | 95 | 100 | 100 | 100 | 95 | 122 to 124
CCOc1c(Cl)ccc(-c2nc(C(=O)OC)c(Cl)c(N)c2F)c1F [Compound A, methyl 4-amino-3-chloro-6-(4-chloro-3-ethoxy-2-fluorophenyl)-5-fluoropicolinate] | 50 | 20 | 20 | 0 | 60 | 60 | 80 | 60 | 40 | 170 to 172
